Source: US8178506B2, “Oligomeric compounds and compositions for use in modulation of small non-coding RNAs” (Regulus Therapeutics Inc., priority 2003, dated 2012)
In the oligonucleotide strings, read from the 5' end, every base follows the letter of its sugar. An asterisk marks phosphorothioate; unmarked linkages are phosphodiester. Other units and linkages are bracketed, terminal groups are in braces. A string of capitals states the bases alone. e = 2'-O-(2-methoxyethyl) (MOE); [5mC] = 5-methylcytosine; d = 2'-deoxy (DNA)

System: HeLa cells
Test: Cell cycle assay in HeLa cells
Type: cell-based, human
Settings: for % cells aneuploid / % cells in cell cycle phase G1 / % cells in cell cycle phase G2/M / % cells in cell cycle phase S / % cells in cell cycle phase subG1 / % cells in cell cycle phase: G1 / % cells in cell cycle phase: G2/M / % cells in cell cycle phase: S / % cells in cell cycle phase: aneuploid / % cells in cell cycle phase: subG1 / % cells in cell cycle phase aneuploid: HeLa cells; for % cells in cell cycle phase: G1 / % cells in cell cycle phase: G2/M / % cells in cell cycle phase: S / % cells in cell cycle phase: aneuploid / % cells in cell cycle phase: subG1: 48 hours after treatment, relative to untreated control (UTC=100)
Experimental: In some embodiments, HeLa cells were plated on collagen-coated 24-well plates at 50,000-60,000 cells per well, and allowed to attach to wells overnight. In some embodiments, HeLa cells were synchronized by double thymidine block (cells were washed three times with PBS, then grown in 10% FBS containing 2 mM thymidine; then 19 hours later, cells were washed three times in PBS, 10% FBS for 9 hours; cells were then incubated in 10% FBS, 2 mM thymidine for 15 hours; then washed three times with PBS, 10% FBS and samples were taken every two hours over a 16 hour period). A portion of each time sample was fixed with ethanol and treated with propidium iodide and subjected to FACs analysis for determination of the percentage of cells in each phase of the cell cycle. […] HeLa cells treated with 10 μM cisplatin or 100 ng/ml nocodazole were used as controls for G1-phase and late G2/M-phases, respectively. From the remaining portion of each of these time samples, total RNA was isolated and used to assess the expression of cell cycle marker mRNAs using the real-time RT-PCR methods and/or used to screen microarrays to assess the expression of miRNAs over the course of the cell cycle. It was observed that several miRNAs are expressed in a cell-cycle-dependent manner. Shown in Table 30 are the mRNA levels of the E2F1 transcription factor and topoisomerase 2A (Top2A), which vary over the course of the cell cycle and can be used for comparison to the experimental groups for the confirmation of cell cycle phase. Data are an average of three trials.
In some embodiments, HeLa cells were also treated with oligomeric compounds targeting miRNAs. […] The medium was removed from the plates. Each well was washed in 250 μl of PBS. […] Control cells received LIPOFECTIN™ only. […] After 24 hours (Table 31) or 48 hours (Table 32), cells were prepared for flow cytometry analysis to generate a cell cycle profile. The cell cycle profile was analyzed with the ModFit program (Verity Software House, Inc., Topsham Me.).
The random-mer ISIS 29848 (SEQ ID NO: 737) was used as a negative control, and ISIS 183891 (SEQ ID NO: 847), targeting kinesin-like 1/Eg5, was included as a positive control. Data are expressed as percentage of cells in each phase relative to the untreated control (UTC); values above 100 are considered to indicate a delay or arrest in that phase of the cell cycle. […] In some cases, the same oligomeric compound was tested in repeated experiments.
In accordance with the present invention, certain oligomeric compounds targeting miRNAs were selected for dose response studies. Using the cell cycle assay described above, the cell cycle profiles of HeLa or A549 cells treated with varying concentrations of oligomeric compounds of the present invention were assessed.
HeLa cells were treated with 25-, 50-, 100- or 150 nM of the oligomeric compounds ISIS
Numbers 327902 (SEQ ID NO: 320) and 328383 (SEQ ID NO: 492), both targeted against mir-192, and ISIS 327905 (SEQ ID NO: 323), targeting mir-205, and ISIS 328403 (SEQ ID NO: 512), targeting mir-106. Cells treated with increasing concentrations of oligomeric compounds were compared to untreated cells, to assess the dose-dependency of the observed delay or arrest. The random-mer ISIS 29848 was used as a negative control. Cells were prepared for flow cytometry 48-hours after oligonucleotide treatment, as described, supra.

[1] = 150 nM oligomeric compound, 24 hours, relative to untreated control (UTC = 100)
[2] = 150 nM, 48 hours, relative to untreated control

Row | Substance | % cells aneuploid [1] [%] | % cells in cell cycle phase G1 [1] [%] | % cells in cell cycle phase G2/M [1] [%] | % cells in cell cycle phase S [1] [%] | % cells in cell cycle phase subG1 [1] [%] | % cells in cell cycle phase: G1 (150 nM oligomeric compound) [%] | % cells in cell cycle phase: G2/M (150 nM oligomeric compound) [%] | % cells in cell cycle phase: S (150 nM oligomeric compound) [%] | % cells in cell cycle phase: aneuploid (150 nM oligomeric compound) [%] | % cells in cell cycle phase: subG1 (150 nM oligomeric compound) [%] | % cells in cell cycle phase G1 [2] [%] | % cells in cell cycle phase G2/M [2] [%] | % cells in cell cycle phase S [2] [%] | % cells in cell cycle phase aneuploid [2] [%] | % cells in cell cycle phase subG1 [2] [%] | chromosome missegregation (subG1 or aneuploid DNA content) (HeLa, 150 nM, 24-hour and 48-hour timepoints) | phase of the cell cycle in which cells arrest or delay (HeLa, 150 nM, 48 hours)
1 | 338678 (antisense CTGGTTGGGTATGAGACAGA; all 2'-MOE, all phosphorothioate, methylation of C not given here) [compound 338678] | 202 | 122 | 131 | 75 | 162 | 81 | 188 | 78 | 179 | 1158 | 103 | 105 | 94 | 132 | 129 | – | –
2 | 328749 (antisense e[5mC]*eA*eG*e[5mC]*e[5mC]*dT*dG*d[5mC]*d[5mC]*dA*d[5mC]*d[5mC]*dG*d[5mC]*d[5mC]*eG*e[5mC]*eT*eT*eT) [compound 328749] | 138 | 126 | 110 | 82 | 312 | 37 | 246 | 129 | 65 | 962 | – | – | – | – | – | – | –
3 | 338809 (antisense CTGCTCCAGAGCCCGAGTCG; all 2'-MOE, all phosphorothioate, methylation of C not given here) [compound 338809] | 210 | 159 | 69 | 82 | 106 | 86 | 129 | 110 | 157 | 345 | – | – | – | – | – | – | –
4 | ISIS 338833: SEQ ID NO: 660, targeted to hypothetical miRNA-181 (TCGTGCACCTGAGGAGTCTG; all 2'-MOE, all phosphorothioate, methylation of C not given here) | – | – | – | – | – | – | – | – | – | – | – | – | – | – | – | induce chromosome missegregation events | –
5 | 341787 (antisense CACAGGTTAAAGGGTCTCAGGGA; all 2'-MOE, all phosphorothioate, methylation of C not given here) [compound 341787] | 165 | 113 | 144 | 75 | 221 | 55 | 197 | 126 | 153 | 707 | 88 | 145 | 96 | 177 | 324 | – | –
6 | 338666 (antisense TCACGTGGAGAGGAGTTAAA; all 2'-MOE, all phosphorothioate, methylation of C not given here) [compound 338666] | 102 | 123 | 158 | 63 | 235 | 44 | 217 | 136 | 125 | 1832 | 92 | 130 | 98 | 151 | 214 | – | –
7 | CAGACTCCGGTGGAATGAAGGA (anti-miR; chemistry not fully specified) [ISIS 327905, uniform 2′-MOE PS; targets mir-205] | – | – | – | – | – | – | – | – | – | – | – | – | – | – | – | – | S-phase
